Assay results reported in patent US20020197670A1, “Membrane associated progesterone receptor” (priority 2001, published 2002).

Tests used:
membrane PR in HAEC = assay: Fluorescent membrane labeling of HAEC at 4° C.; type: cell-based, human; conditions: for fluorescent membrane labeling / membrane binding: 4° C. (cells impermeable), FIG. 13A
Description: Fluorescent membrane labeling studies were performed with both ligand (progesterone conjugated to BSA) and with antibody C19 at 4° C. Experimentation at cold temperatures keeps the cells impermeable; thus, ligand or antibody cannot enter the cell, and specific binding is restricted to the membrane.
In FIG. 13B, a light microscopy image of the same field as in FIG. 13A is shown to illustrate the position of the cells.
Controls used for these experiments include exposure with BSA and the fluorescent tag in the absence of progesterone for the ligand binding study and use of peptide neutralization for the antibody labeling study. […] Approximately 10% of all cells show positive staining. This percentage has been found by other investigators in experiments with sperm. The reason for this low percentage of staining is not yet clear. One possibility includes differential expression of the membrane PR during the cell cycle.

[1] = system: Aortic endothelial cells (HAEC); assay: Calcium response of HAEC to progesterone (fluo-3AM fluorescence); type: cell-based, human; conditions: progesterone 50 μM
Description: Aortic endothelial cells were cultured in 100 cm petri dishes. All solutions including washes contained probenecid, a chemical that minimizes leakage of fluorophore from the cells. The medium contained BSA, fluo-3-[…] (fluo-3AM), and pluronic F-127, an agent that facilitates diffusion of fluorophore through cell membranes. The cells were incubated for 1 hour at RT. Following incubation, the cells were washed several times and then treated with trypsin. After washing, the cells were enumerated by counting in a hemacytometer and the cell number was adjusted to a predetermined value. Progesterone (50 μM) was added to cell suspensions just prior to fluorescence measurement. An aliquot of the cell suspension was placed in a cuvette and measured in a SLM-8000C fluorescence spectrophotometer. The cells were excited at 504 nm and emitted fluorescence measured at 526 nm. The data (not shown) establishes an immediate 1.5-fold increase in calcium influx with exposure to progesterone. Since this reaction occurred within 2-3 seconds, it is clear that this is a nongenomic response to a sex steroid.

| Molecule | fluorescent membrane labeling / membrane binding (membrane PR in HAEC) | increase in calcium influx ([1]; HAEC suspension, fluo-3AM, excitation 504 nm, emission 526 nm, data not shown) [fold] | time within which the calcium reaction occurred ([1]; HAEC) [s] | cells showing positive staining for the membrane PR (membrane PR in HAEC; fluorescent membrane labeling, 4° C., FIGS. 13A-13D) |
| --- | --- | --- | --- | --- |
| progesterone conjugated to BSA: progesterone-conjugated bovine serum albumin-fluorescein isothiocyanate (Sigma), ligand for fluorescent membrane labeling | staining of the membrane is well seen |  |  |  |
| CC(=O)[C@H]1CC[C@H]2[C@@H]3CCC4=CC(=O)CC[C@]4(C)[C@H]3CC[C@]12C [progesterone, Progesterone] | specific membrane binding | 1.5 | 2 to 3 | Approximately 10% |
